# From patent publication US11123349B2, “Method of treatment” (The University of Melbourne, priority 2017, dated 2021)
# Like-named read-outs stand apart in the source and are kept apart here.
# Tests used:
# [1] = Solubility / formulation for intravenous administration; assay type: physicochemical
# Procedure: Solubility of the drugs was tested to determine their suitability for intravenous administration (this is the route of choice for the treatment of endotoxemia).
# [2] = system: TNF production from whole blood stimulated with LPS; test: Whole blood assay: LPS-induced TNF-α production (L929 fibrosarcoma cell bioassay); assay type: cell-based, horse
# Procedure: (§1) A whole blood assay was used to assess the effects of rolipram and doramapimod on cytokine production from leukocytes (white blood cells) in response to bacterial lipopolysaccharide (endotoxin).
# (§2) Blood samples (10 mL; sodium citrate anticoagulant) were obtained from the six normal horses, diluted 1:1 with RPMI 1640 cell culture medium and aliquoted into 15×1 mL aliquots. Serial dilutions of rolipram and doramapimod were made from 10^−2M stock solutions in phosphate-buffered saline and DMSO, respectively, and 10 μL added to […] give final concentrations ranging from 10^−10-10^−4 Molar. The samples were then incubated with 100 ng/mL purified bacterial lipopolysaccharide (endotoxin derived from E. Coli O55:B5; purified to remove DNA and protein contaminants). After incubation for 18 hours at 37° C. in a shaking incubator, samples were centrifuged at 300 g and supernatants stored at −80° C. for cytokine analysis.
# The proinflammatory cytokine, TNF-α, was measured using a L929 fibrosarcoma cell bioassay. […] The yellow tetrazole dye, 3-(4,5-dimethylthiazol-2-yl)-2,5-diphenyltetrazolium bromide (MTT), is reduced to a purple formazan compound in living cells, which is then quantified using a colorimetric plate reader (absorbance read at 570 nm with reference wavelength of 650 nm). […]
# (§3) The data are expressed as % inhibition of LPS-induced cytokine production at each of the drug concentrations. […]
# [3] = system: IL-1 production from whole blood stimulated with LPS; test: Whole blood assay: LPS-induced IL-1β production (ELISA); assay type: cell-based, horse
# Procedure: as §1, §2
# Plasma IL-1β concentrations were measured using an equine-specific enzyme linked immunosorbent assay (ELISA; Horse IL-1β ELISA kit, Bethyl Laboratories, Montgomery, Tex., USA). […] The optical density (OD) values of samples were determined at 450 nm using an ELISA plate reader (BioTek Synergy H1) and concentrations determined using GENS Software (version 2.00.17).
# as §3
# [4] = equine whole blood, LPS, 18 hours
smiles,measurement,setting,value
COc1ccc(C2CNC(=O)C2)cc1OC1CCCC1 (stereo not drawn) [rolipram],solubility,"[1]; 10% DMSO, aqueous with cosolvent or surfactant or cyclodextrin, read-out: soluble in 10% DMSO to",1000 µg/mL
same,solubility,"[1]; water, read-out: water soluble to",200 µg/mL
same,IC50,"[2]; Equus caballus, L929, equine whole blood diluted 1:1 with RPMI 1640, LPS, 18 hours at 37° C., read-out: IC50, inhibition of TNFa production",653 nM
same,inhibition of TNFa production at high concentrations,[2]; [4],~100%
same,IC50,"[3]; Equus caballus, equine whole blood diluted 1:1 with RPMI 1640, LPS, 18 hours at 37° C., read-out: IC50, inhibition of IL-1 production",1020 nM
same,maximum inhibition of IL-1 production,[3]; [4],39.5±7.1%
